Laboratory results reported in ChEMBL document CHEMBL1201862, “PubChem BioAssay data set” (2004).
The source made the active and inactive calls.

What was measured:
Kallikrein-7 = Kallikrein-7 (Homo sapiens, UniProt P49862); assay: Fluorescence Intensity-based biochemical primary high throughput dose response assay to identify activators of kallikrein-7 (K7) zymogen.
[1] = viability inhibitors of stage V gametocytes – luminescence, dose response (AID 1117278); type: functional, cell-based;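 note: gametocytes exposed to compound for 24 hours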
[2] = viability loss in human Jurkat cells – cell-based, luminescence, cytotoxicity control for P. falciparum gametocyte viability project, dose response (AID 1117277); type: functional;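 note: potency reflects loss of cellular ATP meaning fewer viable cells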
[3] = HIV-1 Vif–A3G interaction blockers – biochemical, TR-FRET, GST-Vif 1-94, biotin-A3G peptide, dose response retest, primary screen (AID 1117319); type: functional;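 note: TR-FRET signal of purified GST-Vif binding a biotinylated A3G peptide; inhibitors lower the FRET signal by blocking Vif and A3G binding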
[4] = target: T1, Small ubiquitin-related modifier 1 (Homo sapiens, UniProt P63165); assay: SUMO1 protein-protein binding blockers, potency – biochemical, FRET, dose response (AID 624383); type: functional; settings: read-out: IC50_Mean
[5] = target: Eukaryotic translation initiation factor 4E (Mus musculus, UniProt P63073); assay: blockers of eIF4G binding by eIF4E – biochemical, TR-FRET, dose response (AID 855); type: functional;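 note: potency for disrupting eIF4E binding to eIF4GI seen as loss of FRET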
[6] = target: T1, Small ubiquitin-related modifier 1; assay: SUMO1 protein interaction blockers, potency – biochemical, fluorescence polarization, uHTS hits, dose response (AID 624382); type: functional; settings: read-out: IC50_Mean
[7] = target: T2, Rac GTPase-activating protein 1 (Homo sapiens, UniProt Q9H0H5); assay: blockers of MgcRacGAP-driven Rac1 GTP hydrolysis – biochemical, ADP Hunter fluorescence, primary and confirmatory, confirmation (AID 624330); type: functional
T2 sequence (Q9H0H5 whole entry): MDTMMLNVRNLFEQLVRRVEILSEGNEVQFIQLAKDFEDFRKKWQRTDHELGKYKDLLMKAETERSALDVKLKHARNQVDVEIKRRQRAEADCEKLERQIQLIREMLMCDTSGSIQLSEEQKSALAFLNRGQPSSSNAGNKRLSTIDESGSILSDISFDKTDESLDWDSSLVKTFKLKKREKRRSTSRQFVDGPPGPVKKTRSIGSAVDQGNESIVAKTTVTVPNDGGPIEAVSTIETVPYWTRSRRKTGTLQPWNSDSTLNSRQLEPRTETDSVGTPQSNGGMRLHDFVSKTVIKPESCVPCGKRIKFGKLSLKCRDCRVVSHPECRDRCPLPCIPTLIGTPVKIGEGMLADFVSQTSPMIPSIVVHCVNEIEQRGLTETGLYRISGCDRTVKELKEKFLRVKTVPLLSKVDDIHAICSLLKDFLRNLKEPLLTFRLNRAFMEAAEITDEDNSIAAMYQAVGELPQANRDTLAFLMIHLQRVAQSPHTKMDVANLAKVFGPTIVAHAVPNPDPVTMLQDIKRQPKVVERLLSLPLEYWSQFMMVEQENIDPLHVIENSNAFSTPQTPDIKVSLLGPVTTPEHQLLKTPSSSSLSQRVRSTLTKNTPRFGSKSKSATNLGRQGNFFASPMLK

ORF 73 = target: T3, ORF 73 (Human herpesvirus 8, UniProt O40947); assay: KSHV LANA DNA-binding disruption – biochemical, fluorescence polarization, cherry-picked samples, dose response (AID 504725); design: species or system Human gammaherpesvirus 8;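 note: fluorescence polarization of a labeled DNA duplex reporting LANA DNA binding; potency is for inhibitors that block LANA binding to the DNA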
T3 sequence (O40947 whole entry): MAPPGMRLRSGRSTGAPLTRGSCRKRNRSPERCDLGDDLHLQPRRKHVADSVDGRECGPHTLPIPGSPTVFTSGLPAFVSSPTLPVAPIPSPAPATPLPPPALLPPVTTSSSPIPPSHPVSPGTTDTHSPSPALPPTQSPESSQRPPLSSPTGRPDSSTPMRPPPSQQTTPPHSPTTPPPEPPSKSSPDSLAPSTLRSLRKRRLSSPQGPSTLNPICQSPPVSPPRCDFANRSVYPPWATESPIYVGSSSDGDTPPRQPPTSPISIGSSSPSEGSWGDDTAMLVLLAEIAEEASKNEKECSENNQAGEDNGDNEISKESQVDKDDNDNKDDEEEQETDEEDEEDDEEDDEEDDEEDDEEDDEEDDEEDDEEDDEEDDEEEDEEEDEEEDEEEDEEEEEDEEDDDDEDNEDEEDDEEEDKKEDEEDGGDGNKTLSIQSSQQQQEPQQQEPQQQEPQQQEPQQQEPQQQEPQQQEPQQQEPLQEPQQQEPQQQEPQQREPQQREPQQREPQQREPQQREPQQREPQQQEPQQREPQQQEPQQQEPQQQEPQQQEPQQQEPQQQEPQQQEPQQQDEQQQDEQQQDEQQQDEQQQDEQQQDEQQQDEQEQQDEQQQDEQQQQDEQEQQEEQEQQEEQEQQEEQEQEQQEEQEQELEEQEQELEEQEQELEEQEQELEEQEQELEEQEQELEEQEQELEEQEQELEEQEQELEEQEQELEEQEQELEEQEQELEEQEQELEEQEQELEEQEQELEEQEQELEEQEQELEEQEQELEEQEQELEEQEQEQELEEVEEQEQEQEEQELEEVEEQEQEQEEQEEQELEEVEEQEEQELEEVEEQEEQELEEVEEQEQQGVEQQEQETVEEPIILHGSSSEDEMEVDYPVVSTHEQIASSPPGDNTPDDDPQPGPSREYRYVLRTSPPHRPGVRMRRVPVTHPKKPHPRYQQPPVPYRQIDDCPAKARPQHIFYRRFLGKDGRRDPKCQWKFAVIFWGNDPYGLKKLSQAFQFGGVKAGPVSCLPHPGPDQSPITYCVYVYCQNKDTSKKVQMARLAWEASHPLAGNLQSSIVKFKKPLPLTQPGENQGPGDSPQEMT

[8] = viability loss in THP-1 monocytes – THP-1 cells, cytotoxicity control for Vif-APOBEC3G degradation inhibitor project, dose response (AID 1117359); type: functional; settings: THP-1
[9] = target: T4, Histone-lysine N-methyltransferase NSD2 (Homo sapiens, UniProt O96028); type: biochemical
T4 sequence (O96028 whole entry): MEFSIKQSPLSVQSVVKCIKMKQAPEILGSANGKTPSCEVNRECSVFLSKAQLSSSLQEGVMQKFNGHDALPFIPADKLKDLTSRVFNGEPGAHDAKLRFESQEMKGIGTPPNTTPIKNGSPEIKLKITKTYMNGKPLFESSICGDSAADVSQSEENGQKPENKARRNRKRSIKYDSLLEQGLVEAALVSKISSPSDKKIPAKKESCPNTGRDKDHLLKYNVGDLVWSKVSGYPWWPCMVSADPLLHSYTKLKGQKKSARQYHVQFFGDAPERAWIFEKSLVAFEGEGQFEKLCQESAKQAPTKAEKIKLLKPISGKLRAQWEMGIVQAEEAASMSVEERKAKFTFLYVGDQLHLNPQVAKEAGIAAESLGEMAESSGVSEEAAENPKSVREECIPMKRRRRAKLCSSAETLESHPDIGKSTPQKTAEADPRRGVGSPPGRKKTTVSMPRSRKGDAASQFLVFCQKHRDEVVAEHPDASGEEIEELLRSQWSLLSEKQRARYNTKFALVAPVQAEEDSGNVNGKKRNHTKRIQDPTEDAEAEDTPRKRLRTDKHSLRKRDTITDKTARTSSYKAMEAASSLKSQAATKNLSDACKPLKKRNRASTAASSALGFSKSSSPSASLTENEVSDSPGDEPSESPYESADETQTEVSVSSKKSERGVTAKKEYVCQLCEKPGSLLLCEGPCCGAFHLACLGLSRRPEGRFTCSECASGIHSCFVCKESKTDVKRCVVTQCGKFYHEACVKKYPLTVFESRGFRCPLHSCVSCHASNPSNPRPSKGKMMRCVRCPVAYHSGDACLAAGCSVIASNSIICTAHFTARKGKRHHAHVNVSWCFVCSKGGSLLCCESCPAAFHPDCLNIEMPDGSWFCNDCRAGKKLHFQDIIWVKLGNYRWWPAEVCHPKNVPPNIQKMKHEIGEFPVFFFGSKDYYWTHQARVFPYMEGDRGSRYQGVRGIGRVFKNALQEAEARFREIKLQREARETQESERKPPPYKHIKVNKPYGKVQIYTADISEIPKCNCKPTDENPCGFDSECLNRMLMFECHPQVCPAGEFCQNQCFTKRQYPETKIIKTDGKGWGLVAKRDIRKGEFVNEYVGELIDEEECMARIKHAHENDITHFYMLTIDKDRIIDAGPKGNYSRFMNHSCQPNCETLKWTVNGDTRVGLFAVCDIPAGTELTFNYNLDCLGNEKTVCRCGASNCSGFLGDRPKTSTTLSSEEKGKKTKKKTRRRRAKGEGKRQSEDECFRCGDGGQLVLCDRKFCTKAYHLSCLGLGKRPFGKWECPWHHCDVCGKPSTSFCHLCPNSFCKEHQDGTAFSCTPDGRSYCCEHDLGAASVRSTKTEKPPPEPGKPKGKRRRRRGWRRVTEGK

[10] = target: Induced myeloid leukemia cell differentiation protein Mcl-1 (Homo sapiens, UniProt Q07820); type: functional
[11] = target: Mitogen-activated protein kinase 10 (Homo sapiens, UniProt P53779); assay: Dose response biochemical screening assay for inhibitors of c-Jun N-Terminal Kinase 3 (JNK3). [Related pubchem assays: 746 ]
[12] = target: T5, Calpain-2 catalytic subunit (Sus scrofa, UniProt P43367); assay: m-calpain protease blockers, concentration series – biochemical, fluorogenic peptide substrate, dose response (AID 1420); type: functional
T5 sequence (P43367 whole entry): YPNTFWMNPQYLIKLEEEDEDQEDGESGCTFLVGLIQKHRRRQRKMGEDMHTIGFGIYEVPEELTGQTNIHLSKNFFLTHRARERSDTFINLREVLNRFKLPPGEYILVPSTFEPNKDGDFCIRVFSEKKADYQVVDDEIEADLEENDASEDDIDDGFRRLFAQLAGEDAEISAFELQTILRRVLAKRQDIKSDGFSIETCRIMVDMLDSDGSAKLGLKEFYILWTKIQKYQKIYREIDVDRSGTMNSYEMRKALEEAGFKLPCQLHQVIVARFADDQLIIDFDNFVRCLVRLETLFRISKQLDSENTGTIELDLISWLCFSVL

INS1 = assay: INS-1E survival protection against cytokine death – cell-based, luminescence, retest, dose response (AID 449756); type: functional; settings: Rattus norvegicus;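 note: cell death triggered by IL-1 beta plus TNF-alpha plus IFN-gamma mixture; protective hits raise ATP signal compared with cytokine alone wells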
[13] = HEK293 Cytotoxicity Assay Measured in Cell-Based System Using Plate Reader - 7071-01_Inhibitor_Dose_CherryPick_Activity_Set2.; type: functional
HEK293 = assay: viability loss in HEK293T cells – cell-based, ATP luminescence, cherry-pick samples, cytotoxicity control, dose response (AID 687005); type: functional; settings: Homo sapiens;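 note: cells exposed to compound for 48 hours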
[14] = target: Voltage-dependent T-type calcium channel subunit alpha-1H (Homo sapiens, UniProt O95180); type: functional;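 note: channel activity triggered by adding a high calcium stimulation buffer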
[15] = target: T6, Long-chain-fatty-acid--AMP ligase FadD28 (Mycobacterium tuberculosis, UniProt P9WQ59); assay: Fluorescence polarization aasay to screen for inhibitors that compete for the binding of FadD28 to a bisubstrate Measured in Biochemical System Using Plate Reader - 2147-01_Inhibitor_Dose_CherryPick_Activity.; type: functional, Mycobacterium tuberculosis H37Rv
T6 sequence (P9WQ59 whole entry): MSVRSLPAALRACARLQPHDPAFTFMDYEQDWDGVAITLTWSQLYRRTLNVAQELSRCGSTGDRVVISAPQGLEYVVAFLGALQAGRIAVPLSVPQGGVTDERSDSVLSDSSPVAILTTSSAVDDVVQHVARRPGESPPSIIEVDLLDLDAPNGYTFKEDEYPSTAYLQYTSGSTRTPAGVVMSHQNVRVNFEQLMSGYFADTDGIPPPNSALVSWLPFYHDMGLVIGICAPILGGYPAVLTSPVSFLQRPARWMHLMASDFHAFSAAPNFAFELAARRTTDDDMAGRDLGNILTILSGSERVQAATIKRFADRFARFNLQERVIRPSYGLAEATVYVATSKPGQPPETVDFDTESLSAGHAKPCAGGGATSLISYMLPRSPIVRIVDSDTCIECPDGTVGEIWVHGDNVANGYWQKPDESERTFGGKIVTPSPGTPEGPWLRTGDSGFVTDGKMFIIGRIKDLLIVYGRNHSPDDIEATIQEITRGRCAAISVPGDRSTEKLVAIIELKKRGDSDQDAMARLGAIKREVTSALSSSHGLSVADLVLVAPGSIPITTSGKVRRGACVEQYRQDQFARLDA

[16] = HIV-1 AD8 envelope cell-cell fusion blockers – cherry-pick, dose response (AID 652062); type: functional, cell-based;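 note: luciferase signal from cell-cell fusion driven by HIV-1 clade B AD8 Env; potency is for inhibitors of fusion seen as a drop in luminescence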
[17] = blockers of HIV-1 envelope-mediated cell-cell fusion – cherry-pick, dose response (AID 652057); type: functional, cell-based
[18] = off-target signal loss in HeLa-CEM21 co-culture – HeLa F-luc CTL cells, cherry-picked, counter-screen for HIV-1 Env fusion inhibitor project, dose response (AID 652040); type: functional, cell-based;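 note: potency for signal decrease marking cytotoxic or nonspecific inhibition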

Sequence of Kallikrein-7 (P49862 whole entry): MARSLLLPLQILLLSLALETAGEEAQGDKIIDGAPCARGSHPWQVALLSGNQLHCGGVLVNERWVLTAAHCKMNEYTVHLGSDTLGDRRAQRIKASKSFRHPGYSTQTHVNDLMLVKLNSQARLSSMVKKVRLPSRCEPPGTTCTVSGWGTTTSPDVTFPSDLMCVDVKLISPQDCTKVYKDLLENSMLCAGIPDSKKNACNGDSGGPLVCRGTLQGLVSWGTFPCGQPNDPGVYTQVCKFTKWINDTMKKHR
T1 sequence (P63165 whole entry): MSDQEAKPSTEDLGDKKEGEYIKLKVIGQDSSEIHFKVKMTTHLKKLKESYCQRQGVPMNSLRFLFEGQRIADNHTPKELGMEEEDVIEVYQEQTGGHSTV
Sequence of Voltage-dependent T-type calcium channel subunit alpha-1H (O95180 whole entry): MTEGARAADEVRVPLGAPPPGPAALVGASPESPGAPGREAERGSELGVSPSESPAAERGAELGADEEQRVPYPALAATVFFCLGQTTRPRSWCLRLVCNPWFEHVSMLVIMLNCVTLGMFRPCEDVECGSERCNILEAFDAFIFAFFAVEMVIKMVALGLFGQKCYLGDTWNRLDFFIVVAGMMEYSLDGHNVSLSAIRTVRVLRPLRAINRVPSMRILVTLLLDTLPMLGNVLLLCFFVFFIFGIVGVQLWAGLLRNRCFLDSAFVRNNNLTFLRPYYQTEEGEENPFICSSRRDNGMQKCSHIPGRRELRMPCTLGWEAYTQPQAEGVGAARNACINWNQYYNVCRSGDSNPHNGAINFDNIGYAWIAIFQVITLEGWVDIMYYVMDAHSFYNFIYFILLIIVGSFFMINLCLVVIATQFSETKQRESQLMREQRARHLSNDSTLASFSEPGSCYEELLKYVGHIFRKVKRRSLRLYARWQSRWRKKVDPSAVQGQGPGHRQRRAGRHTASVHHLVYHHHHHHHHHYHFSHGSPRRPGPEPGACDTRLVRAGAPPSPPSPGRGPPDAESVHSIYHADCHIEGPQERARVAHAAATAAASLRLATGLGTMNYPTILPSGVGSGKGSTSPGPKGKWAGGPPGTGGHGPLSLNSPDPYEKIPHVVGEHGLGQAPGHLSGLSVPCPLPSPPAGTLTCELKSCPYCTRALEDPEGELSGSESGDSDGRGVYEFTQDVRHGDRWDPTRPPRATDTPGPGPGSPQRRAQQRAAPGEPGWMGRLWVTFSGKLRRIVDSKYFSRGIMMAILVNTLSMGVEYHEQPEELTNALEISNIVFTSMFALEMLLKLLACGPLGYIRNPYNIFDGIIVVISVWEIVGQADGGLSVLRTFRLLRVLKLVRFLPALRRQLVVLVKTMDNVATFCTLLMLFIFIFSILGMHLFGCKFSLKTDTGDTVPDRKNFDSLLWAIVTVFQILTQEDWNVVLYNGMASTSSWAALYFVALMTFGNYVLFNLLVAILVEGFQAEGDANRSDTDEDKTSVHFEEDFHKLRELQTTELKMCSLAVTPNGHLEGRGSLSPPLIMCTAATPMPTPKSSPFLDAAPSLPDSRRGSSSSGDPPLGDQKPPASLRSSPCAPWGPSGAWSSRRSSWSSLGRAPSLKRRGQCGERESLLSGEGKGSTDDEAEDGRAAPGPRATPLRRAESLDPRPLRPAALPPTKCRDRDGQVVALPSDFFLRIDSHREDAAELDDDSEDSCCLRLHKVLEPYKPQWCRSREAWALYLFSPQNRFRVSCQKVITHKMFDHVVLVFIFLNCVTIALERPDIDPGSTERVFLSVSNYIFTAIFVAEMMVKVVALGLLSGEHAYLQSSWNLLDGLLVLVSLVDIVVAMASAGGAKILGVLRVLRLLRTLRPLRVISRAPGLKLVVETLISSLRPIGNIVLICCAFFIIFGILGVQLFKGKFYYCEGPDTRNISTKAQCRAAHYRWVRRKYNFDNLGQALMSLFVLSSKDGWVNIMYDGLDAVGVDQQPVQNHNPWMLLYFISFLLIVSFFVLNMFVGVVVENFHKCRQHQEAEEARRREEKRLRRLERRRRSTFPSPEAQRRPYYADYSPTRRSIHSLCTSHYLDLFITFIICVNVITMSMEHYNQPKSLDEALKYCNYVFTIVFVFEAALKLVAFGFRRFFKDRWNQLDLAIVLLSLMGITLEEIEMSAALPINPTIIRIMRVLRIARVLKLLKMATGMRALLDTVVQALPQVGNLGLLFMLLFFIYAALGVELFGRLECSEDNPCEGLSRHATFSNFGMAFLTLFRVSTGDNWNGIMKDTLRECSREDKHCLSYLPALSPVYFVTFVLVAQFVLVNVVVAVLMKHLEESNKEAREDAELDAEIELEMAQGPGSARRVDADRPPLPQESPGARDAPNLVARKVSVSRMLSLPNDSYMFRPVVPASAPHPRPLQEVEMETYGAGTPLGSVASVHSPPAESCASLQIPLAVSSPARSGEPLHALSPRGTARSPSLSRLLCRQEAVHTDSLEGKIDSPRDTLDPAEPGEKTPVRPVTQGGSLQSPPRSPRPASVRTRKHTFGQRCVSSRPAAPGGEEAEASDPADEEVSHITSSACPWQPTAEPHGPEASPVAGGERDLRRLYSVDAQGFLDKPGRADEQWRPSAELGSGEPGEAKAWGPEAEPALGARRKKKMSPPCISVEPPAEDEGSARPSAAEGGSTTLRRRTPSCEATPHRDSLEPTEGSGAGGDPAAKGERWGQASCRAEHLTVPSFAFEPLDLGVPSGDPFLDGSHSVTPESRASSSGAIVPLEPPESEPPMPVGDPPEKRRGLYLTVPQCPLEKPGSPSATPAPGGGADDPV
Sequence of Mitogen-activated protein kinase 10 (P53779 whole entry): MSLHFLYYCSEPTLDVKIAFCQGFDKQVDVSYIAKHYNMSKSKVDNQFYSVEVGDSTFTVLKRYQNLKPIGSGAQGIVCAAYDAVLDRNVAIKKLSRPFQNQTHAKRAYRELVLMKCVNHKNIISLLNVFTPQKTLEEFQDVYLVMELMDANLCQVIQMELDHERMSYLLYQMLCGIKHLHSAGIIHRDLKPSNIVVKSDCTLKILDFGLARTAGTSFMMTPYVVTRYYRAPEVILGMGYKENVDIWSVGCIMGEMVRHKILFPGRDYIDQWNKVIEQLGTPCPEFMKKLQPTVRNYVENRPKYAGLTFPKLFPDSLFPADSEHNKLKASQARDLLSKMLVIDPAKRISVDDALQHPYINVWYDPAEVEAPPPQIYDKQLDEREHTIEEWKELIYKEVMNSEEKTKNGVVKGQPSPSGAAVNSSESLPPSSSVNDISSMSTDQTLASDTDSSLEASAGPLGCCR
Sequence of Induced myeloid leukemia cell differentiation protein Mcl-1 (Q07820 whole entry): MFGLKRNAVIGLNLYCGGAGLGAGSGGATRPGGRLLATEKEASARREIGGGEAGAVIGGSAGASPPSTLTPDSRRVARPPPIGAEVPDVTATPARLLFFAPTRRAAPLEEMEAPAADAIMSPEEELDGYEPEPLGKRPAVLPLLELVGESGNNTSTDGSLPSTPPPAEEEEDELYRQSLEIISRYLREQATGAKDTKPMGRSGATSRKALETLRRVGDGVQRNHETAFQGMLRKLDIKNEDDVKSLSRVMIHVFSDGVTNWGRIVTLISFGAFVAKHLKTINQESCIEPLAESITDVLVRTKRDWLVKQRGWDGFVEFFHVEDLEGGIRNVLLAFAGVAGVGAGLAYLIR
Sequence of Eukaryotic translation initiation factor 4E (P63073 whole entry): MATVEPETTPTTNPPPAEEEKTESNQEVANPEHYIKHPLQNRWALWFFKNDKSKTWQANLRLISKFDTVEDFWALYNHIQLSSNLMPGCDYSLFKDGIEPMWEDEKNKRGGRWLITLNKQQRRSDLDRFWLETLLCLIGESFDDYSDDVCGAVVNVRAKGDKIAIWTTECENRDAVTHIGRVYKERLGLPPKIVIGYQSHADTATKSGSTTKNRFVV

Cc1ccc(-c2cn3cccnc3n2)cc1NC(=O)c1ccc(Br)o1
EC50 (Kallikrein-7): > 69.5 µM (inactive)

N#Cc1c(SCC(N)=O)nc2c(c1-c1ccncc1)CCCC2
IC50 [1]: > 109 µM (inactive) | IC50 [2]: > 83.3 µM (inactive)

CCn1c(S)nnc1Cc1c(C)[nH]c2ccccc12
IC50 [3]: > 100 µM (active)

CSc1ccc(/C=N/Nc2cccc(C(=O)O)c2)cc1
IC50 [4]: 6.71 µM (active) | IC50 [5]: 50 µM (inactive) | IC50 [6]: > 66.6 µM (inactive) | IC50 [7]: 83.5 µM (active) | AC50 (ORF 73): 19.8 µM (active) | CC50 [8]: > 40 µM (active) | AC50 [9]: 2.93 µM (active) | IC50 [10]: 2.19 µM (active)

Cc1ccc(Nc2cc(-n3nc(C)cc3C)ncn2)cc1
IC50 [11]: 13.4 µM (not active)

O=C(CN1CC[n+]2c(-c3cccs3)csc21)c1ccc(-c2ccccc2)cc1
IC50 [1]: > 109 µM (inactive) | IC50 [12]: 22.1 µM (not active) | AC50 (INS1): 2.39 µM (active) | IC50 [2]: > 83.3 µM (inactive)

Cc1coc2c1c(C)cc1oc(=O)c(CC(=O)NCCCCCC(=O)O)c(C)c12
EC50 (Kallikrein-7): > 69.5 µM (inactive)

COC(=O)C1=C(C)N(Cc2ccccc2)C(=O)N[C@H]1c1cccc(F)c1
AC50 [13]: 24.6 µM (active) | AC50 (HEK293): 24.6 µM (active)

COc1ccc(OC)c(/C=C/C(=O)OCC(=O)NCc2ccco2)c1
EC50 (Kallikrein-7): > 69.5 µM (inactive)

C[C@@H]1CN([C@H](C)CO)S(=O)(=O)c2ccc(C#Cc3ccccn3)cc2O[C@H]1CN(C)Cc1ccccc1
AC50 [13]: 5.16 µM (active) | AC50 (HEK293): 5.16 µM (active)

Cc1ccc(CSCCNC(=O)c2ccc(Cl)c(S(=O)(=O)N3CCOCC3)c2)cc1
EC50 [14]: 4.41 µM (active) | AC50 [15]: 5.54 µM (active) | AC50 [16]: 7.44 µM (active) | AC50 [17]: 25.3 µM (active) | AC50 [18]: 54.5 µM (active)

Cc1ccc(-c2csc3nc(CN(C)Cc4ccccc4)nc(O)c23)cc1
IC50 [1]: > 109 µM (inactive) | IC50 [2]: > 83.2 µM (inactive)
